# Source: PubChem BioAssay (NCI)
#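 These data come from cells grown in 96-well plates and exposed to compound for 48 hours at five concentrations. At the TGI there is no net growth.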
# Legend:
# Assay in all cases: DTP human tumour cell line panel, 48 h
# [1] = test system: HCT-15 colon
# [2] = test system: SK-MEL-2 melanoma
# [3] = test system: MDA-N
# [4] = test system: HOP-62 NSCLC
# [5] = test system: SW-620 colon
# [6] = test system: NCI-H226 lung
# [7] = test system: OVCAR-4 ovarian
# [8] = test system: HCT-116 colon
# [9] = test system: SK-MEL-28 melanoma
# [10] = test system: OVCAR-3 ovarian
# [11] = test system: U251 CNS
# [12] = test system: NCI-H460 lung
# [13] = test system: UACC-257 melanoma
# [14] = test system: M14 melanoma
# [15] = test system: ACHN renal
# [16] = test system: SK-MEL-5 melanoma
# [17] = test system: SNB-75 CNS
# [18] = test system: SN12C renal
# [19] = test system: NCI/ADR-RES ovarian
# [20] = test system: HL-60(TB) leukemia
Compound,TGI [1] [µM],TGI [2] [µM],TGI [3] [µM],TGI [4] [µM],TGI [5] [µM],TGI [6] [µM],TGI [7] [µM],TGI [8] [µM],TGI [9] [µM],TGI [10] [µM],TGI [11] [µM],TGI [12] [µM],TGI [13] [µM],TGI [14] [µM],TGI [15] [µM],TGI [16] [µM],TGI [17] [µM],TGI [18] [µM],TGI [19] [µM],TGI [20] [µM]
NC(=O)CNC(=O)[C@@H]1C[C@@H](OCCC(=O)O)CN1C(=O)OCc1ccccc1,> 100,> 100,> 100,> 100,> 100,> 100,> 100,> 100,> 100,> 100,> 100,> 100,> 100,> 100,> 100,> 100,> 100,> 100,> 100,> 100
CSc1ccc2c(cc1=O)[C@@H](NC(=O)c1ccc([N+](=O)[O-])cc1)CCc1cc(O)c(O)c(O)c1-2,85.1,> 100,67.4,33.4,> 100,> 100,> 100,> 100,> 100,31.1,> 100,> 100,> 100,> 100,> 100,53.1,> 100,62.5,53.6,57.5
COc1ccc(/C=C(/c2ccccc2)c2c(C)cc(C)c(/C(=C\c3ccc(OC)cc3)c3ccccc3)c2N=Nc2cc(C)cc(C)c2)cc1,> 100,21.8,> 100,> 100,> 100,> 100,> 100,> 87.8,> 100,30.2,> 100,> 75.2,18.8,> 100,> 100,37.6,34.2,23.4,> 100,> 42.4
CC(C)(SCc1ccccc1)C(N)C(=O)O (stereo not given),> 100,> 100,> 100,> 100,> 100,> 100,> 100,> 100,> 100,> 100,> 100,> 100,> 100,> 100,> 100,> 100,> 100,> 100,> 100,> 100
Cc1cccc(C(=O)O)c1CC1NCCC2c3ccccc3NC12 (stereo not given),> 100,> 100,> 100,> 100,> 100,> 100,> 100,> 100,> 100,> 100,> 100,> 100,> 100,> 100,> 100,> 100,> 100,> 100,> 100,> 100
COC(=O)c1ccc(C)cc1CC1Cc2c(C)cccc2C1=O (stereo not given),12.7,17.5,4.82,> 53.4,> 48.7,37.4,> 91.9,15.4,84.7,16.1,20.8,> 78.3,49,> 54.1,> 94.3,19.7,20.9,28.2,17.2,24.2
Cc1[nH]c(=O)nc(N(CCO)/N=C/c2ccc(Cl)cc2)c1C(=O)Nc1ccc(Cl)cc1,> 100,> 100,> 100,> 100,> 100,> 100,> 100,> 100,> 100,> 100,69.2,> 100,> 100,> 100,> 100,> 100,> 100,> 100,> 100,> 100
CNc1nc2c(C)ccc3[nH]c(N(C)C)nc3c-2n1,> 100,> 100,> 100,> 100,> 100,> 100,80.9,> 100,> 100,> 100,> 100,> 100,> 100,51.1,76.8,50.3,> 100,> 100,> 100,69.5
Cc1nc2ccccc2c(=O)n1/N=C/c1ccc(N(C)C)cc1,> 100,> 100,> 100,> 100,> 100,> 100,> 100,> 100,> 100,> 100,> 100,> 100,> 100,> 100,> 100,> 100,43.9,> 100,> 100,> 100
O[C@H]1[C@H](O)[C@@H](Cn2nnc(-c3ccccc3)c2-c2ccccc2)OCO[C@@H]1Cn1nnc(-c2ccccc2)c1-c1ccccc1,11.8,9.41,9.97,29,46.6,> 45.4,26.9,9.63,> 67.1,9.14,> 41,13.4,15.1,11.7,13.6,10.2,28.9,7.55,> 42.4,> 24
O=C1C=C2CC[C@H]3[C@@H]4CC[C@H](Oc5c6ccccc6nc6ccccc56)[C@H]4CC[C@@H]3[C@H]2CC1,> 100,> 100,75.2,> 100,> 100,> 100,> 100,> 100,> 100,> 100,> 100,> 100,> 100,> 100,> 100,> 100,91.8,> 100,> 100,47.4
C=CCn1c(-c2ccc(Cl)cc2Cl)csc1=Nc1c(C)n(C)n(-c2ccccc2)c1=O,30,29.2,22.4,29.7,32.8,33,28.3,20.4,26.7,23.7,25.1,27.1,19.2,23.8,27.7,13.1,24.5,27.5,34.2,25.8
CC1CC(C(=O)OC2OC(COC3OC(CO)C(OC4OC(C)C(O)C(O)C4O)C(O)C3O)C(O)C(O)C2O)C2CCC3(C)C(=CCC4(C)C3CCC3C(C)(CO)C(O)C(O)CC34C)C2C1C (stereo not given),> 100,42.2,36.4,37.2,88.3,80.1,37.3,41.7,33.5,60.4,33.5,66.6,> 10,> 100,> 10,33,32.5,37,> 100,45.8
CC(=O)OC1[C@@H](OC(C)=O)CN(OCc2ccccc2)C[C@H]1OC(C)=O (stereo not given in full),> 100,> 100,> 100,> 100,> 100,> 100,> 100,> 100,> 100,> 100,> 100,> 100,> 100,> 100,> 100,> 100,> 100,> 100,> 100,> 100
NC(=S)N/N=C1\CCCCC1C(O)(C(F)(F)Cl)C(F)(F)Cl (stereo not given),> 10,> 10,> 10,> 10,> 10,> 10,> 10,> 10,> 10,> 10,> 10,> 10,> 10,> 10,> 10,> 10,> 10,> 10,> 10,> 10
COc1ccc(N(C(=O)NCCO)c2ccccc2)cc1,> 100,> 100,> 100,> 100,> 100,> 100,> 100,> 100,> 100,> 100,> 100,> 100,> 100,> 100,> 100,> 100,> 100,> 100,> 100,> 100
Oc1ccccc1-c1nn2c(CCCCCCCCc3nnc4sc(-c5ccccc5O)nn34)nnc2s1,> 100,> 67.5,> 100,> 92.2,> 100,> 100,> 100,> 71.2,> 100,64.3,> 100,> 100,> 100,> 77.7,> 100,64.8,> 86.1,> 100,> 100,77.9
C[N+](C)(C)C(C1=CCCC1=O)c1ccccc1 (stereo not given),41.5,> 100,> 100,80.2,70.4,> 100,> 100,32.1,> 100,> 100,42.7,89.8,64.4,> 100,64.3,> 100,> 100,44,> 100,66.5
